How the values were obtained:
Experiment in all cases: biochemical
Assay type in all cases: biochemical
[1] = molecular target: 363 human kinases (including Aurora A/B/C) (Homo sapiens, UniProt P51451); details: BLK, [ATP] 10 µM; for remaining activity at 0.1 µM: 100 nM; for remaining activity at 0.1 µM / remaining activity at 0.5 µM: read-out: % Enzyme Activity (relative to DMSO controls)
Excerpt: (§1) However, the Aurora A/B selectivity ratios derived from our in vitro and in vivo data can be compared to prioritize inhibitors.

[2] = molecular target: T1, 363 human kinases (including Aurora A/B/C) (Homo sapiens, UniProt P54762); details: EPHB1, [ATP] 100 µM; for remaining activity at 0.1 µM: 100 nM; for remaining activity at 0.1 µM / remaining activity at 0.5 µM: read-out: % Enzyme Activity (relative to DMSO controls)
T1 sequence (P54762 18-984): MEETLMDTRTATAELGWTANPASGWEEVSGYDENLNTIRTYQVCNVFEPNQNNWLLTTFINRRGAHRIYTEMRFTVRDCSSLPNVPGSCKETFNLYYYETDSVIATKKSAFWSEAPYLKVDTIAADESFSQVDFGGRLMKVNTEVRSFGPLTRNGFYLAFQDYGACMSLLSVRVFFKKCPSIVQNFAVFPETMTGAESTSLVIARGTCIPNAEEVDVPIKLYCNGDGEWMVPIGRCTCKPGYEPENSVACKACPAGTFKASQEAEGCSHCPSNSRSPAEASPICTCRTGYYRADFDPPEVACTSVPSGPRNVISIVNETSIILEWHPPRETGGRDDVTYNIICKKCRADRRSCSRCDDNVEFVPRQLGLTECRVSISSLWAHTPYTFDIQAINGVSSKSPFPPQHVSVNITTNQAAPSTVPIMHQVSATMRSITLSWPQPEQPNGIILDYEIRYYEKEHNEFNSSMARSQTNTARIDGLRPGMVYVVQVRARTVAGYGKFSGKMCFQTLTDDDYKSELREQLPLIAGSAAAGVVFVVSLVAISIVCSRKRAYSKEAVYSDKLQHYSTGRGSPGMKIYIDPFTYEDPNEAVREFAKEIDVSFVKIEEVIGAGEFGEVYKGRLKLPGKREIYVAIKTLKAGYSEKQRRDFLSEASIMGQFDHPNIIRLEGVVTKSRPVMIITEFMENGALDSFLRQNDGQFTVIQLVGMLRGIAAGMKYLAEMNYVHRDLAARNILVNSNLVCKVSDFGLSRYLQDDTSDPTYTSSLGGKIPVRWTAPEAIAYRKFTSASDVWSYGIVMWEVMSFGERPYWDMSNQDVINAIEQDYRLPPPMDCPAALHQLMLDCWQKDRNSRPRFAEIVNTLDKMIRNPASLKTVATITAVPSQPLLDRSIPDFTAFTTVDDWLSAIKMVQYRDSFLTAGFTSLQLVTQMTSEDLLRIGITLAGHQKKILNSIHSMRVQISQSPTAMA
Excerpt: as §1

[3] = molecular target: 363 human kinases (including Aurora A/B/C) (Homo sapiens, UniProt O75716); details: STK16; for remaining activity at 0.1 µM: 100 nM; for remaining activity at 0.1 µM / remaining activity at 0.5 µM: read-out: % Enzyme Activity (relative to DMSO controls)
363 human kinases (including Aurora A/B/C) (Homo sapiens, UniProt O75716), sequence (O75716 whole entry): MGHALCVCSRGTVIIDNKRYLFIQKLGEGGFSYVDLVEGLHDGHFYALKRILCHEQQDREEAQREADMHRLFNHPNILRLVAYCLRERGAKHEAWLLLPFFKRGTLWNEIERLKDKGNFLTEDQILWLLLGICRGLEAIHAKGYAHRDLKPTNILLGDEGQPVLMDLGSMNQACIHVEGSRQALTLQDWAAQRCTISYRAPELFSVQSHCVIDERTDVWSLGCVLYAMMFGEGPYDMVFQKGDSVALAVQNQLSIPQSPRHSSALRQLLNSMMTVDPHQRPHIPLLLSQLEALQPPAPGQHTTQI
Excerpt: as §1

[4] = molecular target: 363 human kinases (including Aurora A/B/C) (Homo sapiens, UniProt Q07912); details: ACK1, [ATP] 100 µM; for remaining activity at 0.1 µM: 100 nM; for remaining activity at 0.1 µM / remaining activity at 0.5 µM: read-out: % Enzyme Activity (relative to DMSO controls)
363 human kinases (including Aurora A/B/C) (Homo sapiens, UniProt Q07912), sequence (Q07912 whole entry): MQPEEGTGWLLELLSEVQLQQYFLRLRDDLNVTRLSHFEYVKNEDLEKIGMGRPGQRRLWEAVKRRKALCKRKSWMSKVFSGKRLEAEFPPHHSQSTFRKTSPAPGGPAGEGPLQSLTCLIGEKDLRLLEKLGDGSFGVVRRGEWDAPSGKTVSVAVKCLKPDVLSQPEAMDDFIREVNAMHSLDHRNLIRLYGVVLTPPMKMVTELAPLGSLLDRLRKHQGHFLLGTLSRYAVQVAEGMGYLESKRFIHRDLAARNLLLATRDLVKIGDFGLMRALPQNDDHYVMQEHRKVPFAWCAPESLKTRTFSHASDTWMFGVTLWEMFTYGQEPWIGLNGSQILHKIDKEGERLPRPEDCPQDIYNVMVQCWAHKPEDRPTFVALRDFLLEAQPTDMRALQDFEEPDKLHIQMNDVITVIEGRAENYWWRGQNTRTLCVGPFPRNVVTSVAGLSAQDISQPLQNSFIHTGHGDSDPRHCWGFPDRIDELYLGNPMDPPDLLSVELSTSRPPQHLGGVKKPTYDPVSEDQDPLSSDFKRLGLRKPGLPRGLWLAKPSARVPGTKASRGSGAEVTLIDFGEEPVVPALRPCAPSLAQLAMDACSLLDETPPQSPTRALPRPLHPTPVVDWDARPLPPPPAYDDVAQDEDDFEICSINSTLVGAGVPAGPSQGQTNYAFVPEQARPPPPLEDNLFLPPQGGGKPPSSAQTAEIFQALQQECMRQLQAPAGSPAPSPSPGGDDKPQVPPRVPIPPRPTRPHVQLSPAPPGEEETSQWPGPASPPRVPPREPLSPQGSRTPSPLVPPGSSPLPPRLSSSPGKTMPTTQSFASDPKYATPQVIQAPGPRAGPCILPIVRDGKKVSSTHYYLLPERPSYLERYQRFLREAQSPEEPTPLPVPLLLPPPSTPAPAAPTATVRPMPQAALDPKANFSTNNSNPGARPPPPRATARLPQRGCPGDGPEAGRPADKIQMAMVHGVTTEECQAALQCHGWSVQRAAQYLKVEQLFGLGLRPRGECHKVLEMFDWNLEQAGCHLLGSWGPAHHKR
Excerpt: as §1

[5] = molecular target: 363 human kinases (including Aurora A/B/C) (Homo sapiens, UniProt O00238); details: ALK6/BMPR1B, [ATP] 10 µM; for remaining activity at 0.1 µM: 100 nM; for remaining activity at 0.1 µM / remaining activity at 0.5 µM: read-out: % Enzyme Activity (relative to DMSO controls)
363 human kinases (including Aurora A/B/C) (Homo sapiens, UniProt O00238), sequence (O00238 14-502): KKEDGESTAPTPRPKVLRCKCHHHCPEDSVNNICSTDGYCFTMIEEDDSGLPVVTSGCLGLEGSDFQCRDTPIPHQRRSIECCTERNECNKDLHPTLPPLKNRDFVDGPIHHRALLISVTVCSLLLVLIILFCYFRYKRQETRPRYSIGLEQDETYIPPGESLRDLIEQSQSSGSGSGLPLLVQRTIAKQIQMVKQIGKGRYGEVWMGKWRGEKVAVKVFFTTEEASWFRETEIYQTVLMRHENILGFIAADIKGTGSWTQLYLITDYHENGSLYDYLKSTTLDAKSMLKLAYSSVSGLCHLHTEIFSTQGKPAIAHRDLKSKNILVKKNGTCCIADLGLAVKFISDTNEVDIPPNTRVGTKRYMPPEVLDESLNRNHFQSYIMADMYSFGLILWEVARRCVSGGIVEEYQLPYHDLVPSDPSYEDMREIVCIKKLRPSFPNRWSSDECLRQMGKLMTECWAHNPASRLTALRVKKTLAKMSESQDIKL
Excerpt: as §1

[6] = molecular target: T2, 363 human kinases (including Aurora A/B/C) (Homo sapiens, UniProt Q8WXR4); details: MYO3b; for remaining activity at 0.1 µM: 100 nM; for remaining activity at 0.1 µM / remaining activity at 0.5 µM: read-out: % Enzyme Activity (relative to DMSO controls)
T2 sequence (Q8WXR4 1-1341): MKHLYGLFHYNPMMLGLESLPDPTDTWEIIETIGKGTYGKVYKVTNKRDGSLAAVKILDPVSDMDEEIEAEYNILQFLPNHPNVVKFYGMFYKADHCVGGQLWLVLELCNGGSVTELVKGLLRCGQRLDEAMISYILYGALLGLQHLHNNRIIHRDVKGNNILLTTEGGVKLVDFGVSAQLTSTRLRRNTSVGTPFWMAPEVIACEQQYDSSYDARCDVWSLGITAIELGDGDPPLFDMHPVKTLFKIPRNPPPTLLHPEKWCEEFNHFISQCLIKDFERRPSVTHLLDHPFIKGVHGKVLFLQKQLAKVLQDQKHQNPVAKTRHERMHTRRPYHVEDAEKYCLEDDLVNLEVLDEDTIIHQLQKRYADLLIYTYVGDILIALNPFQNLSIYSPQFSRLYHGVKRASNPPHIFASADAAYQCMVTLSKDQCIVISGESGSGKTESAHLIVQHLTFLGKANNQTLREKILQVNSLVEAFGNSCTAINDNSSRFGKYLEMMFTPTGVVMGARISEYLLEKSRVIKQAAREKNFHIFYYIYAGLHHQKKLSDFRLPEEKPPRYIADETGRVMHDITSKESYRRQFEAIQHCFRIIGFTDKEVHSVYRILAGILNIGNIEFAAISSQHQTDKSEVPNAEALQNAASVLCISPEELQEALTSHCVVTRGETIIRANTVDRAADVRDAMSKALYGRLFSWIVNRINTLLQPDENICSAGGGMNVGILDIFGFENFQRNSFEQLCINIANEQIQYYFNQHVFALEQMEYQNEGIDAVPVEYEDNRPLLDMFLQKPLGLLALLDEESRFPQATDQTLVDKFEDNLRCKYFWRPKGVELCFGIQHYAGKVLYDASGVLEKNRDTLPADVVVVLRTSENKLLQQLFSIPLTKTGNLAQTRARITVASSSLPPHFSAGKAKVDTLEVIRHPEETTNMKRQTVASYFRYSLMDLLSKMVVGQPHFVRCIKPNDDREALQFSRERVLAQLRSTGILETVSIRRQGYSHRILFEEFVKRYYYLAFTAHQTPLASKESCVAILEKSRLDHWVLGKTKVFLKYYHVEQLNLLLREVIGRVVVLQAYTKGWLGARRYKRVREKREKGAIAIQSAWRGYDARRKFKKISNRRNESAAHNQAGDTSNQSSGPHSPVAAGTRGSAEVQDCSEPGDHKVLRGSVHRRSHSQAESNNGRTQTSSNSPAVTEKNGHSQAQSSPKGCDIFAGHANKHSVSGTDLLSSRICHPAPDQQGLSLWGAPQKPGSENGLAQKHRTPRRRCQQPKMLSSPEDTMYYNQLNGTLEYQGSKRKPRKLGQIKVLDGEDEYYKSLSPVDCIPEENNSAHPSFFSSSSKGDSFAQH
Excerpt: as §1

363 human kinases (including Aurora A/B/C) (Homo sapiens, UniProt P51451), sequence (P51451 whole entry): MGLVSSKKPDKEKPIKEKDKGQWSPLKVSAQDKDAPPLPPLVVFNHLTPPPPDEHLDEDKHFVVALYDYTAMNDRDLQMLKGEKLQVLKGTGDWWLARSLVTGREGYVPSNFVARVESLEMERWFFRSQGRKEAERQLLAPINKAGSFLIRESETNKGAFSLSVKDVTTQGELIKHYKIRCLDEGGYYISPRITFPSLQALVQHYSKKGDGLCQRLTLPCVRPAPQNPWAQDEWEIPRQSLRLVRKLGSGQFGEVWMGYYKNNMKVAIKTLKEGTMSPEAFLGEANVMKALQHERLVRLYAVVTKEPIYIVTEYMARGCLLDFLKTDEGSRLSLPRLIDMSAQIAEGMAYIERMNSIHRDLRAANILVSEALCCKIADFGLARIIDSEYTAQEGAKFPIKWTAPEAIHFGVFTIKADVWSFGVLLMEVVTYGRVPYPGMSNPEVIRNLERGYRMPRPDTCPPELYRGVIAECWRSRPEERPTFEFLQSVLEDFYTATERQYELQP

| Compound | remaining activity at 0.1 µM [1] [%] | remaining activity at 0.1 µM [2] [%] | remaining activity at 0.1 µM [3] [%] | remaining activity at 0.1 µM [4] [%] | remaining activity at 0.1 µM [5] [%] | remaining activity at 0.1 µM [6] [%] | remaining activity at 0.5 µM ([1]; 500 nM) [%] | remaining activity at 0.5 µM ([2]; 500 nM) [%] | remaining activity at 0.5 µM ([3]; 500 nM) [%] | remaining activity at 0.5 µM ([4]; 500 nM) [%] | remaining activity at 0.5 µM ([5]; 500 nM) [%] | remaining activity at 0.5 µM ([6]; 500 nM) [%] | % Enzyme Activity (relative to DMSO controls) ([1]; 500 nM) [%] | % Enzyme Activity (relative to DMSO controls) ([2]; 500 nM) [%] | % Enzyme Activity (relative to DMSO controls) ([3]; 500 nM) [%] | % Enzyme Activity (relative to DMSO controls) ([4]; 500 nM) [%] | % Enzyme Activity (relative to DMSO controls) ([5]; 500 nM) [%] | % Enzyme Activity (relative to DMSO controls) ([6]; 500 nM) [%] |
| --- | --- | --- | --- | --- | --- | --- | --- | --- | --- | --- | --- | --- | --- | --- | --- | --- | --- | --- |
| CCn1cc(-c2ccnc3[nH]c(-c4cccc(CN(C)C)c4)cc23)c(-c2ccc(NC(=O)N(C)C)cc2)n1 [GSK1070916] | 85 | 89.2 | 107 | 83.9 | 89.2 | 102 |  |  |  |  |  |  |  |  |  |  |  |  |
| O=C(O)[C@]1(Cc2cccc(Nc3nccs3)n2)CC[C@@H](Oc2cccc(Cl)c2F)CC1 [MK-5108] | 54.8 | 42.4 | 70.7 | 15.8 | 101 | 99.8 | 17.1 | 13.9 | 15.2 | 1.62 | 46.2 | 100 |  |  |  |  |  |  |
| O=C(c1cccc(Cl)c1F)N1CCN(Cc2cccc(Nc3nccs3)n2)CC1 [MK-8745] |  |  |  |  |  |  | 72.7 | 65.9 | 71.1 | 51.9 | 92 | 107 | 72.45 | 65.66 | 70.34 | 50.10 | 91.78 | 106.69 |

— publication PMC4685510, “A Cell Biologist’s Field Guide to Aurora Kinase Inhibitors” (Frontiers in Oncology, 2015)
